Where only a bound is given, the exact number is not on record here.

Sequence of IGF-1R (P08069 31-1367): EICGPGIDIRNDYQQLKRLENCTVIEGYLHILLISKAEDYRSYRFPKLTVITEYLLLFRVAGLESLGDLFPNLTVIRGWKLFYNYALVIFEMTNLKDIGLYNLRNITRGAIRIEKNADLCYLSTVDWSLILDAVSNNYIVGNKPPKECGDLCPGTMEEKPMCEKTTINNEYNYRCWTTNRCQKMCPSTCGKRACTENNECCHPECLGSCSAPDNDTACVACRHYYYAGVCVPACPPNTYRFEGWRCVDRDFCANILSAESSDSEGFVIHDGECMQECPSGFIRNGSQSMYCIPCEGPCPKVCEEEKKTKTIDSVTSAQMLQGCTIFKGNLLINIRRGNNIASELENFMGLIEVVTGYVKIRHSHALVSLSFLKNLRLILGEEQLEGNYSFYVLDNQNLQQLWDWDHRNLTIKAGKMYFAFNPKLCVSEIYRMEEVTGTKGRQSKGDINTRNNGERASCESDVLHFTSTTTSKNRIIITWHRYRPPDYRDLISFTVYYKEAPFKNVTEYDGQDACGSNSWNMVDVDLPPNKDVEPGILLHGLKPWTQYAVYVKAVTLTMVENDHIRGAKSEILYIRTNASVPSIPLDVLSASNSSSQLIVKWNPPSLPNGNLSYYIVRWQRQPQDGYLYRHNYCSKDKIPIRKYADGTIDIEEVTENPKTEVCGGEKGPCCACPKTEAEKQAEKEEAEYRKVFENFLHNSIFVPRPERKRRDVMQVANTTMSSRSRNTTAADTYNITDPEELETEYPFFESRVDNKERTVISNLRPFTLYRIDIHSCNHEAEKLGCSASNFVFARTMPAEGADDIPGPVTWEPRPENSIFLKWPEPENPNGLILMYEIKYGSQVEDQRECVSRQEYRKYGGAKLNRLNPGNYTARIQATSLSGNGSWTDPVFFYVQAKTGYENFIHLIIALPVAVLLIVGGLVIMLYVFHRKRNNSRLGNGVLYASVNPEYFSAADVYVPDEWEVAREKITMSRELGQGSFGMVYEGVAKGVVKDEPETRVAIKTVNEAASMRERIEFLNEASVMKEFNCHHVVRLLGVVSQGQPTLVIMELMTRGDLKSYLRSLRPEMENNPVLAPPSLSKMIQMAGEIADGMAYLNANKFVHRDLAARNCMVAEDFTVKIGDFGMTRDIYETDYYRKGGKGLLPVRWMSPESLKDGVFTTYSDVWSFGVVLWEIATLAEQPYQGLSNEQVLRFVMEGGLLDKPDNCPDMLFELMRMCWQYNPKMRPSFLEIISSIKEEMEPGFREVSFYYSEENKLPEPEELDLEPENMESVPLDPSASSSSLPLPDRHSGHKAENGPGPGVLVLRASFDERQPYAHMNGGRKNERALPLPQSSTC

This experiment concerns the target IGF-1R (Homo sapiens (Human), UniProt P08069). The experiment can be described thus: Example B-1: IGF-1R Assay (PC3 cells, IGF1 stimulation, AlphaLISA). It is filed as cell-based. The conditions noted are these: 200 ng/mL IGF1 stimulation, read-out: Biological Activity against IGF-1R IC50. In short, it runs like this: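 PC3 cells were serum-starved 2 h, treated with serially diluted compounds for 2 h, then stimulated with IGF1 (200 ng/mL final) for 30 min. Lysates were read by AlphaLISA; % inhibition was calculated relative to vehicle and EC80 controls, with IC50 values binned into ranges.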
What is called IC50 is the concentration at which inhibition is half-maximal. As for `COc1cc(Nc2nccc(Nc3cnc4ccc(Cl)cc4c3)n2)cnc1O[C@@H]1C[C@H](N(C)C)C1(C)C` [Compound 258, 2-{6-[(1R,3S)-3-(dimethylamino)-2,2-dimethylcyclobutoxy]-5-methoxy-3-pyridylamino}-4-(6-chloro-3-quinolylamino)pyrimidine], the IC50 was not above 500 nM.
Then `COc1cc(Nc2nccc(Nc3cnc4c(c3)OC(CN(C)C)CO4)n2)ccc1O[C@H]1C[C@@H](N(C)C)C1` (stereo partly shown) [Compound 259, 4-{2-[(dimethylamino)methyl]-2,3-dihydro-1,4-dioxa-5-aza-7-naphthylamino}-2-{3-methoxy-4-[(1s,3s)-3-(dimethylamino)cyclobutoxy]phenylamino}pyrimidine], with not above 500 nM; and `CN(C)[C@H]1C[C@@H](Oc2ccc(Nc3nccc(Nc4cnc5c(c4)OCCO5)n3)cc2)C1` [Compound 260, 4-(2,3-dihydro-1,4-dioxa-5-aza-7-naphthylamino)-2-{p-[(1s,3s)-3-(dimethylamino)cyclobutoxy]phenylamino}pyrimidine], with not above 500 nM.
Then `COc1cc(Nc2nccc(Nc3cc4cccc(F)c4nc3O)n2)cnc1OC1CCNCC1` [Compound 261, 8-fluoro-3-{2-[5-methoxy-6-(4-piperidyloxy)-3-pyridylamino]-4-pyrimidinylamino}-2-quinolinol], with not above 500 nM; and `COc1cc(Nc2cc(Nc3cnc4ccccc4n3)ccn2)ccc1O[C@H]1C[C@@H](N(C)C)C1` [Compound 262, 2-{3-methoxy-4-[(1s,3s)-3-(dimethylamino)cyclobutoxy]phenylamino}-4-(2-quinoxalinylamino)pyridine], with not above 500 nM.
Then `COc1cc(Nc2nccc(Nc3cnc4cc(F)c(F)cc4c3)n2)cnc1OC1CCNCC1(F)F` (stereo not shown) [Compound 263, 2-[6-(3,3-difluoro-4-piperidyloxy)-5-methoxy-3-pyridylamino]-4-(6,7-difluoro-3-quinolylamino)pyrimidine], with not above 500 nM.
As to `COc1cc(Nc2nccc(Nc3cnc4ccccc4c3)c2F)ccc1O[C@H]1C[C@@H](N(C)C)C1` [Compound 264, 3-fluoro-2-{3-methoxy-4-[(1s,3s)-3-(dimethylamino)cyclobutoxy]phenylamino}-4-(3-quinolylamino)pyridine], the 50% inhibitory concentration (IC50) is more than 10000 nM.
Take `COc1cc(Nc2cc(Nc3cnc4ccccc4c3)ccn2)ccc1O[C@H]1C[C@@H](N(C)C)C1` [Compound 265, 2-{3-methoxy-4-[(1s,3s)-3-(dimethylamino)cyclobutoxy]phenylamino}-4-(3-quinolylamino)pyridine]: the IC50 fell in the range of 2000 to 10000 nM.
Then `COc1cc(Nc2nccc(Nc3ccc4c(O)nccc4c3)n2)ccc1O[C@H]1C[C@@H](N(C)C)C1` [Compound 266, 6-(2-{3-methoxy-4-[(1s,3s)-3-(dimethylamino)cyclobutoxy]phenylamino}-4-pyrimidinylamino)-1-isoquinolinol], with not above 500 nM.
To `COc1cc(Nc2nccc(Nc3cnc4ccccc4c3)n2)cc(C#N)c1O[C@H]1C[C@H](N(C)C)C1` [Compound 267, 3-methoxy-5-[4-(3-quinolylamino)-2-pyrimidinylamino]-2-[(1r,3r)-3-(dimethylamino)cyclobutoxy] benzonitrile] belongs not above 500 nM.
To `COc1cc(Nc2nccc(Nc3cnc4c(c3)OCC(C)(C)O4)n2)ccc1O[C@H]1C[C@@H](N(C)C)C1` [Compound 268, 4-(3,3-dimethyl-2,3-dihydro-1,4-dioxa-5-aza-7-naphthylamino)-2-{3-methoxy-4-[(1s,3s)-3-(dimethylamino)cyclobutoxy]phenylamino}pyrimidine] belongs not above 500 nM.
Consider `COc1cc(Nc2nccc(Nc3cnc4c(F)cccc4c3)n2)cnc1O[C@H]1C[C@@H](N(C)C)C1` [Compound 270, 4-(8-fluoro-3-quinolylamino)-2-{5-methoxy-6-[(1s,3s)-3-(dimethylamino)cyclobutoxy]-3-pyridylamino}pyrimidine], for which the IC50 is not above 500 nM.
On to `COc1cc(Nc2nccc(Nc3cnc4c(c3)OCC(C)(C)O4)n2)cnc1O[C@H]1C[C@@H](N(C)C)C1` [Compound 271, 4-(3,3-dimethyl-2,3-dihydro-1,4-dioxa-5-aza-7-naphthylamino)-2-{5-methoxy-6-[(1s,3s)-3-(dimethylamino)cyclobutoxy]-3-pyridylamino}pyrimidine], for which the half-maximal inhibitory concentration (IC50) is not above 500 nM.
As for `COc1cc(Nc2nccc(Nc3cnc4cc(F)cnc4c3)n2)ccc1O[C@H]1C[C@@H](N(C)C)C1` [Compound 272, 4-(7-fluoro-1,5-diaza-3-naphthylamino)-2-{3-methoxy-4-[(1s,3s)-3-(dimethylamino)cyclobutoxy]phenylamino}pyrimidine], the 50% inhibitory concentration (IC50) was not above 500 nM.
Then `COc1cc(Nc2nccc(Nc3cnc4c(c3)OCCO4)n2)ccc1O[C@H]1CC[C@@H](N(C)C)CC1` [Compound 273], with not above 500 nM; and `COc1cc(Nc2nccc(Nc3cnc4cncc(F)c4c3)n2)ccc1O[C@H]1C[C@@H](N(C)C)C1` [Compound 274, 4-(5-fluoro-1,7-diaza-3-naphthylamino)-2-{3-methoxy-4-[(1s,3s)-3-(dimethylamino)cyclobutoxy]phenylamino}pyrimidine], with 2000 to 10000 nM; and `COc1cc(Nc2nccc(Nc3ccc(Cl)nc3C(N)=O)n2)ccc1O[C@H]1C[C@@H](N(C)C)C1` [Compound 275, 6-chloro-3-(2-{3-methoxy-4-[(1s,3s)-3-(dimethylamino)cyclobutoxy]phenylamino}-4-pyrimidinylamino)-2-pyridinecarboxamide], with not above 500 nM.
To `COc1cc(Nc2nccc(Nc3cnc4c(c3)OCCO4)n2)cnc1O[C@H]1C[C@@H](N(C)C)C1` [Compound 276, 4-(2,3-dihydro-1,4-dioxa-5-aza-7-naphthylamino)-2-{5-methoxy-6-[(1s,3s)-3-(dimethylamino)cyclobutoxy]-3-pyridylamino}pyrimidine] belongs not above 500 nM; to `COc1ccc2ncc(Nc3ccnc(Nc4ccc(O[C@H]5C[C@@H](N(C)C)C5)c(OC)c4)n3)cc2c1` [Compound 277, 4-(6-methoxy-3-quinolylamino)-2-{3-methoxy-4-[(1s,3s)-3-(dimethylamino)cyclobutoxy]phenylamino}pyrimidine], not above 500 nM.
Then `COc1cc(Nc2nccc(Nc3cnc4cc(Cl)cnc4c3)n2)ccc1O[C@H]1C[C@@H](N(C)C)C1` [Compound 278, 4-(7-chloro-1,5-diaza-3-naphthylamino)-2-{3-methoxy-4-[(1s,3s)-3-(dimethylamino)cyclobutoxy]phenylamino}pyrimidine], with not above 500 nM.
On to `COc1cc(Nc2nccc(Nc3cnc4cc(Cl)cnc4c3)n2)cnc1O[C@H]1C[C@@H](N(C)C)C1` [Compound 279, 4-(7-chloro-1,5-diaza-3-naphthylamino)-2-{5-methoxy-6-[(1s,3s)-3-(dimethylamino)cyclobutoxy]-3-pyridylamino}pyrimidine], for which the 50% inhibitory concentration (IC50) lay in the range of 500 to 2000 nM.
To `COc1cc(Nc2nccc(Nc3cnc4c(cnn4C)c3)n2)ccc1O[C@H]1C[C@@H](N(C)C)C1` [Compound 280, 2-{3-methoxy-4-[(1s,3s)-3-(dimethylamino)cyclobutoxy]phenylamino}-4-(1-methyl-1H-1,2,7-triazainden-5-ylamino)pyrimidine] belongs not above 500 nM; to `COc1cc(Nc2nccc(Nc3cnc4[nH]cc(C)c4c3)n2)ccc1O[C@H]1C[C@@H](N(C)C)C1` [Compound 281, 2-{3-methoxy-4-[(1s,3s)-3-(dimethylamino)cyclobutoxy]phenylamino}-4-(3-methyl-1H-1,7-diazainden-5-ylamino)pyrimidine], not above 500 nM.
Then `COc1cc(Nc2nccc(Nc3cnc4c(ccn4C)c3)n2)ccc1O[C@H]1C[C@@H](N(C)C)C1` [Compound 282, 2-{3-methoxy-4-[(1s,3s)-3-(dimethylamino)cyclobutoxy]phenylamino}-4-(1-methyl-1H-1,7-diazainden-5-ylamino)pyrimidine], with not above 500 nM; and `COc1cc(Nc2nccc(Nc3cnc4[nH]c(C)cc4c3)n2)ccc1O[C@H]1C[C@@H](N(C)C)C1` [Compound 283, 2-{3-methoxy-4-[(1s,3s)-3-(dimethylamino)cyclobutoxy]phenylamino}-4-(2-methyl-1H-1,7-diazainden-5-ylamino)pyrimidine], with not above 500 nM; and `COc1cc(Nc2nccc(Nc3cccnc3C(N)=O)n2)ccc1O[C@H]1C[C@@H](N(C)C)C1` [Compound 284, 3-(2-{3-methoxy-4-[(1s,3s)-3-(dimethylamino)cyclobutoxy]phenylamino}-4-pyrimidinylamino)-2-pyridinecarboxamide], with not above 500 nM.
Then `COc1cc(Nc2nccc(Nc3cnc4ccc(Cl)nc4c3)n2)ccc1O[C@H]1C[C@H](N(C)C)C1` [Compound 285, 4-(6-chloro-1,5-diaza-3-naphthylamino)-2-{3-methoxy-4-[(1r,3r)-3-(dimethylamino)cyclobutoxy]phenylamino}pyrimidine], with not above 500 nM.
Turning to `COc1cc(Nc2nccc(Nc3cnc4ccc(Cl)cc4c3)n2)ccc1O[C@H]1CC[C@@H](N(C)C)CC1` [Compound 286, 4-(6-chloro-3-quinolylamino)-2-{3-methoxy-4-[(1s,4s)-4-(dimethylamino)cyclohexyloxy]phenylamino}pyrimidine], the half-maximal inhibitory concentration (IC50) was not above 500 nM.
Consider `COc1cc(Nc2nccc(Nc3cnc4cc(F)c(F)cc4c3)n2)cnc1O[C@H]1C[C@@H](N(C)C)C1` [Compound 289, 4-(6,7-difluoro-3-quinolylamino)-2-{5-methoxy-6-[(1s,3s)-3-(dimethylamino)cyclobutoxy]-3-pyridylamino}pyrimidine], for which the half-inhibitory concentration (IC50) lay in the range of 500 to 2000 nM.
As for `COc1cc(Nc2nccc(Nc3cnc4c(F)cc(F)cc4c3)n2)cnc1O[C@H]1C[C@@H](N(C)C)C1` [Compound 290, 4-(6,8-difluoro-3-quinolylamino)-2-{5-methoxy-6-[(1s,3s)-3-(dimethylamino)cyclobutoxy]-3-pyridylamino}pyrimidine], the IC50 is not above 500 nM.
Then `COc1cc(Nc2nccc(Nc3cnc4cc(Br)cnc4c3)n2)ccc1OC1CN(C)C1` [Compound 292, 4-(7-bromo-1,5-diaza-3-naphthylamino)-2-[3-methoxy-4-(1-methyl-3-azetidinyloxy)phenylamino] pyrimidine], with 2000 to 10000 nM.

Values taken from patent publication US20250171431A1, “HETEROCYCLIC INHIBITORS OF IGF-1R FOR TREATMENT OF DISEASE” (HORIZON THERAPEUTICS IRELAND DAC, priority 2023, published 2025).
